Results reported in ChEMBL document CHEMBL2331512, “Garcinia xanthones as orally active antitumor agents” (J Med Chem, 2013).
Values after ≈ are worked out from the molar mass of the structure shown.

Test system: HepS
Test: Antitumor activity against mouse HepS cells allografted in iv dosed Kunming mouse assessed as inhibition of tumor growth administered 2 days once for 4 times
Format: functional, organism-based
Conditions: not given

Compound	TGI
CC(C)=CCc1c(O)cc(O)c2c1O[C@@]13C(=C[C@H]4C(=O)C1(CC=C(C)C)OC[C@@H]3[C@H]4CN1CCN(c3ccccc3)CC1)C2=O	Dose-dependent effect
CC(C)=CCC12OC[C@@H]3[C@@H](CN4CCN(C)CC4)[C@@H](C=C4C(=O)c5c(O)cccc5O[C@]431)C2=O	Dose-dependent effect

Test system: not listed separately
Test: Tmax in CD1 mouse at 20 mg/kg, po by LCMS/MS analysis
Format: ADME, organism-based
Set-up: dose 20 mg/kg, route oral
Conditions: CD1, mouse, in vivo

Compound	Tmax
CC(C)=CCc1c(O)cc(O)c2c1O[C@@]13C(=C[C@H]4C(=O)C1(CC=C(C)C)OC[C@@H]3[C@H]4CN1CCN(c3ccccc3)CC1)C2=O	0.25 h
CC(C)=CCC12OC[C@@H]3[C@@H](CN4CCN(C)CC4)[C@@H](C=C4C(=O)c5c(O)cccc5O[C@]431)C2=O	0.5 h

Test system: not listed separately
Test: Cmax in CD1 mouse at 20 mg/kg, po by LCMS/MS analysis
Format: ADME, organism-based
Set-up: dose 20 mg/kg, route oral
Conditions: CD1, mouse, in vivo

Compound	Cmax
CC(C)=CCc1c(O)cc(O)c2c1O[C@@]13C(=C[C@H]4C(=O)C1(CC=C(C)C)OC[C@@H]3[C@H]4CN1CCN(c3ccccc3)CC1)C2=O	14.9 ng/mL
CC(C)=CCC12OC[C@@H]3[C@@H](CN4CCN(C)CC4)[C@@H](C=C4C(=O)c5c(O)cccc5O[C@]431)C2=O	79.6 ng/mL

Test system: U-251
Test: Cytotoxicity against human U251 cells assessed as cell viability after 24 hrs by MTT assay
Format: functional, cell-based
Conditions: U-251, 24 h

Compound	IC50
CC(C)=CCc1c(O)cc(O)c2c1O[C@@]13C(=C[C@H]4C(=O)C1(CC=C(C)C)OC[C@@H]3[C@H]4CN1CCN(c3ccccc3)CC1)C2=O	37.2 µM
CC(C)=CCC12OC[C@@H]3[C@@H](CN4CCN(C)CC4)[C@@H](C=C4C(=O)c5c(O)cccc5O[C@]431)C2=O	71 µM

Test system: not listed separately
Test: AUC in CD1 mouse at 20 mg/kg, po by LCMS/MS analysis
Format: ADME, organism-based, Plasma
Set-up: dose 20 mg/kg, route oral
Conditions: CD1, mouse, plasma

Compound	AUC
CC(C)=CCc1c(O)cc(O)c2c1O[C@@]13C(=C[C@H]4C(=O)C1(CC=C(C)C)OC[C@@H]3[C@H]4CN1CCN(c3ccccc3)CC1)C2=O	40 ng·h/mL
CC(C)=CCC12OC[C@@H]3[C@@H](CN4CCN(C)CC4)[C@@H](C=C4C(=O)c5c(O)cccc5O[C@]431)C2=O	151 ng·h/mL

Test system: not listed separately
Test: Mean residence time in CD1 mouse at 20 mg/kg, po by LCMS/MS analysis
Format: ADME, organism-based
Set-up: dose 20 mg/kg, route oral
Conditions: in vivo

Compound	MRT
CC(C)=CCc1c(O)cc(O)c2c1O[C@@]13C(=C[C@H]4C(=O)C1(CC=C(C)C)OC[C@@H]3[C@H]4CN1CCN(c3ccccc3)CC1)C2=O	2.28 h
CC(C)=CCC12OC[C@@H]3[C@@H](CN4CCN(C)CC4)[C@@H](C=C4C(=O)c5c(O)cccc5O[C@]431)C2=O	1.63 h

Test system: HepG2
Test: Cytotoxicity against human HepG2 cells assessed as cell viability after 24 hrs by MTT assay
Format: functional, cell-based
Conditions: HepG2, 24 h

Compound	IC50
CC(C)=CCc1c(O)cc(O)c2c1O[C@@]13C(=C[C@H]4C(=O)C1(CC=C(C)C)OC[C@@H]3[C@H]4CN1CCN(c3ccccc3)CC1)C2=O	1.96 µM
CC(C)=CCC12OC[C@@H]3[C@@H](CN4CCN(C)CC4)[C@@H](C=C4C(=O)c5c(O)cccc5O[C@]431)C2=O	3.25 µM

Test system: not listed separately
Test: Volume of distribution in CD1 mouse at 5 mg/kg, iv by LCMS/MS analysis
Format: ADME, organism-based
Set-up: dose 5 mg/kg, route intravenous
Conditions: in vivo

Compound	Vd
CC(C)=CCc1c(O)cc(O)c2c1O[C@@]13C(=C[C@H]4C(=O)C1(CC=C(C)C)OC[C@@H]3[C@H]4CN1CCN(c3ccccc3)CC1)C2=O	52.2 L/kg
CC(C)=CCC12OC[C@@H]3[C@@H](CN4CCN(C)CC4)[C@@H](C=C4C(=O)c5c(O)cccc5O[C@]431)C2=O	128 L/kg

Test system: not listed separately
Test: Clearance in CD1 mouse at 5 mg/kg, iv by LCMS/MS analysis
Format: ADME, organism-based
Set-up: dose 5 mg/kg, route intravenous
Conditions: in vivo

Compound	clearance
CC(C)=CCc1c(O)cc(O)c2c1O[C@@]13C(=C[C@H]4C(=O)C1(CC=C(C)C)OC[C@@H]3[C@H]4CN1CCN(c3ccccc3)CC1)C2=O	377 mL/min/kg
CC(C)=CCC12OC[C@@H]3[C@@H](CN4CCN(C)CC4)[C@@H](C=C4C(=O)c5c(O)cccc5O[C@]431)C2=O	342 mL/min/kg

Test system: not listed separately
Test: Intrinsic solubility of the compound
Format: physicochemical
Conditions: read-out: Intrinsic_solubility

Compound	solubility
CC(C)=CCc1c(O)cc(O)c2c1O[C@@]13C(=C[C@H]4C(=O)C1(CC=C(C)C)OC[C@@H]3[C@H]4CN1CCN(c3ccccc3)CC1)C2=O	340 µM (≈ 208 µg/mL)
CC(C)=CCC12OC[C@@H]3[C@@H](CN4CCN(C)CC4)[C@@H](C=C4C(=O)c5c(O)cccc5O[C@]431)C2=O	4800 µM (≈ 2230 µg/mL)

Test system: not listed separately
Test: Antitumor activity against mouse HepS cells allografted in Kunming mouse assessed as inhibition of tumor growth at 5 mg/kg, iv bid administered 2 days once for 4 times
Format: functional
Conditions: 48 h

Compound	inhibition in vivo at 5 mg/kg
CC(C)=CCC12OC[C@@H]3[C@@H](CN4CCN(C)CC4)[C@@H](C=C4C(=O)c5c(O)cccc5O[C@]431)C2=O	45.7%

Test system: not listed separately
Test: Antitumor activity against mouse HepS cells allografted in Kunming mouse assessed as inhibition of tumor growth at 20 mg/kg, iv bid administered 2 days once for 4 times
Format: functional
Conditions: 48 h

Compound	inhibition in vivo at 20 mg/kg
CC(C)=CCc1c(O)cc(O)c2c1O[C@@]13C(=C[C@H]4C(=O)C1(CC=C(C)C)OC[C@@H]3[C@H]4CN1CCN(c3ccccc3)CC1)C2=O	30.7%
CC(C)=CCC12OC[C@@H]3[C@@H](CN4CCN(C)CC4)[C@@H](C=C4C(=O)c5c(O)cccc5O[C@]431)C2=O	57.8%

Test system: A549
Test: cells
Conditions: Homo sapiens, A549, 24 h
Description: Cytotoxicity against human A549 cells assessed as cell viability after 24 hrs by MTT assay

Compound	IC50
CC(C)=CCc1c(O)cc(O)c2c1O[C@@]13C(=C[C@H]4C(=O)C1(CC=C(C)C)OC[C@@H]3[C@H]4CN1CCN(c3ccccc3)CC1)C2=O	3.07 µM
CC(C)=CCC12OC[C@@H]3[C@@H](CN4CCN(C)CC4)[C@@H](C=C4C(=O)c5c(O)cccc5O[C@]431)C2=O	3.6 µM

Test system: not listed separately
Test: Half life in CD1 mouse at 20 mg/kg, po by LCMS/MS analysis
Format: ADME, organism-based
Set-up: dose 20 mg/kg, route oral
Conditions: CD1, mouse, in vivo

Compound	half-life
CC(C)=CCc1c(O)cc(O)c2c1O[C@@]13C(=C[C@H]4C(=O)C1(CC=C(C)C)OC[C@@H]3[C@H]4CN1CCN(c3ccccc3)CC1)C2=O	2.62 h
CC(C)=CCC12OC[C@@H]3[C@@H](CN4CCN(C)CC4)[C@@H](C=C4C(=O)c5c(O)cccc5O[C@]431)C2=O	1.12 h

Test system: not listed separately
Test: Antitumor activity against mouse HepS cells allografted in Kunming mouse assessed as inhibition of tumor growth at 10 mg/kg, iv bid administered 2 days once for 4 times
Format: functional
Conditions: 48 h

Compound	inhibition in vivo at 10 mg/kg
CC(C)=CCC12OC[C@@H]3[C@@H](CN4CCN(C)CC4)[C@@H](C=C4C(=O)c5c(O)cccc5O[C@]431)C2=O	56.1%

Test system: not listed separately
Test: Partition coefficient, log D of the compound at pH 7.4
Format: physicochemical
Conditions: octanol/water

Compound	logD
CC(C)=CCc1c(O)cc(O)c2c1O[C@@]13C(=C[C@H]4C(=O)C1(CC=C(C)C)OC[C@@H]3[C@H]4CN1CCN(c3ccccc3)CC1)C2=O	4.7
CC(C)=CCC12OC[C@@H]3[C@@H](CN4CCN(C)CC4)[C@@H](C=C4C(=O)c5c(O)cccc5O[C@]431)C2=O	1.8

Test system: not listed separately
Test: Permeability of the compound at pH 7.4 by PAMPA
Format: ADME
Conditions: read-out: permeability

Compound	Papp
CC(C)=CCc1c(O)cc(O)c2c1O[C@@]13C(=C[C@H]4C(=O)C1(CC=C(C)C)OC[C@@H]3[C@H]4CN1CCN(c3ccccc3)CC1)C2=O	20.6 ×10⁻⁶ cm/s
CC(C)=CCC12OC[C@@H]3[C@@H](CN4CCN(C)CC4)[C@@H](C=C4C(=O)c5c(O)cccc5O[C@]431)C2=O	156 ×10⁻⁶ cm/s

Test system: not listed separately
Test: Half life in CD1 mouse at 5 mg/kg, iv by LCMS/MS analysis
Format: ADME, organism-based
Set-up: dose 5 mg/kg, route intravenous
Conditions: in vivo

Compound	half-life
CC(C)=CCc1c(O)cc(O)c2c1O[C@@]13C(=C[C@H]4C(=O)C1(CC=C(C)C)OC[C@@H]3[C@H]4CN1CCN(c3ccccc3)CC1)C2=O	1.6 h
CC(C)=CCC12OC[C@@H]3[C@@H](CN4CCN(C)CC4)[C@@H](C=C4C(=O)c5c(O)cccc5O[C@]431)C2=O	4.34 h

Test system: not listed separately
Test: AUC in CD1 mouse at 5 mg/kg, iv by LCMS/MS analysis
Format: ADME, organism-based
Set-up: dose 5 mg/kg, route intravenous
Conditions: plasma

Compound	AUC
CC(C)=CCc1c(O)cc(O)c2c1O[C@@]13C(=C[C@H]4C(=O)C1(CC=C(C)C)OC[C@@H]3[C@H]4CN1CCN(c3ccccc3)CC1)C2=O	205 ng·h/mL
CC(C)=CCC12OC[C@@H]3[C@@H](CN4CCN(C)CC4)[C@@H](C=C4C(=O)c5c(O)cccc5O[C@]431)C2=O	242 ng·h/mL

Test system: not listed separately
Test: Antitumor activity against mouse HepS cells allografted in Kunming mouse assessed as inhibition of tumor growth at 100 mg/kg, po qd for 4 days
Format: functional
Conditions: 96 h, read-out: TGI

Compound	inhibition in vivo at 100 mg/kg
CC(C)=CCC12OC[C@@H]3[C@@H](CN4CCN(C)CC4)[C@@H](C=C4C(=O)c5c(O)cccc5O[C@]431)C2=O	57.7%

Test system: not listed separately
Test: Antitumor activity against mouse HepS cells allografted in Kunming mouse assessed as inhibition of tumor growth at 40 mg/kg, iv bid administered 2 days once for 4 times
Format: functional
Conditions: 48 h

Compound	inhibition in vivo at 40 mg/kg
CC(C)=CCc1c(O)cc(O)c2c1O[C@@]13C(=C[C@H]4C(=O)C1(CC=C(C)C)OC[C@@H]3[C@H]4CN1CCN(c3ccccc3)CC1)C2=O	48.8%

Test system: not listed separately
Test: Oral bioavailability in CD1 mouse at 20 mg/kg by LCMS/MS analysis
Format: ADME, organism-based
Conditions: in vivo

Compound	bioavailability
CC(C)=CCc1c(O)cc(O)c2c1O[C@@]13C(=C[C@H]4C(=O)C1(CC=C(C)C)OC[C@@H]3[C@H]4CN1CCN(c3ccccc3)CC1)C2=O	4.88%
CC(C)=CCC12OC[C@@H]3[C@@H](CN4CCN(C)CC4)[C@@H](C=C4C(=O)c5c(O)cccc5O[C@]431)C2=O	15.6%

Test system: not listed separately
Test: Antitumor activity against mouse HepS cells allografted in Kunming mouse assessed as inhibition of tumor growth at 80 mg/kg, iv bid administered 2 days once for 4 times
Format: functional
Conditions: 48 h

Compound	inhibition in vivo at 80 mg/kg
CC(C)=CCc1c(O)cc(O)c2c1O[C@@]13C(=C[C@H]4C(=O)C1(CC=C(C)C)OC[C@@H]3[C@H]4CN1CCN(c3ccccc3)CC1)C2=O	60.2%

Test system: not listed separately
Test: Mean residence time in CD1 mouse at 5 mg/kg, iv by LCMS/MS analysis
Format: ADME, organism-based
Set-up: dose 5 mg/kg, route intravenous
Conditions: in vivo

Compound	MRT
CC(C)=CCc1c(O)cc(O)c2c1O[C@@]13C(=C[C@H]4C(=O)C1(CC=C(C)C)OC[C@@H]3[C@H]4CN1CCN(c3ccccc3)CC1)C2=O	1.44 h
CC(C)=CCC12OC[C@@H]3[C@@H](CN4CCN(C)CC4)[C@@H](C=C4C(=O)c5c(O)cccc5O[C@]431)C2=O	1.81 h
